Test results: article PMC11146149 (RSC Advances, 2024)

Columns and labels:
Type in all cases: biochemical
COX-1 = biological target: T1, COX-1 (Ovis aries, UniProt P05979); experiment: In vitro COX inhibitory assay; conditions: for inhibition at 50 µg/mL / inhibition at 100 µg/mL / inhibition at 150 µg/mL: read-out: Inhibition of COX-1 (%); for Inhibition of COX-1 in comparison to indomethacin: result in words
T1 sequence (P05979 25-600): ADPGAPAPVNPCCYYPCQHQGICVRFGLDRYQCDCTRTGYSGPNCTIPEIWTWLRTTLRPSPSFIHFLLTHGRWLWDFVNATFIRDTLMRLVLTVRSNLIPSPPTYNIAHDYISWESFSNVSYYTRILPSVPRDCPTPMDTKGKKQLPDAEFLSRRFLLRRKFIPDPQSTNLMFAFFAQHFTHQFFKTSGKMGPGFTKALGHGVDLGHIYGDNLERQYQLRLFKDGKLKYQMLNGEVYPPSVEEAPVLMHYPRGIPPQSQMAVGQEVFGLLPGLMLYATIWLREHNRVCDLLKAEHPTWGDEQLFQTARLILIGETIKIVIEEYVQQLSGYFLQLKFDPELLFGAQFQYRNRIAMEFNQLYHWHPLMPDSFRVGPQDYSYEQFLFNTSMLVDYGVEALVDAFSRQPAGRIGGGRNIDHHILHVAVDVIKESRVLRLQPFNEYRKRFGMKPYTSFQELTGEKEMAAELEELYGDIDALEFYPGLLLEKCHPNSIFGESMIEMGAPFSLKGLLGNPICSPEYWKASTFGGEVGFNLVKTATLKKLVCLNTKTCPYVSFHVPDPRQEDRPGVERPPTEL

egg albumin = biological target: T2, egg albumin (Gallus gallus, UniProt P01012); experiment: Inhibition of protein denaturation method; conditions: read-out: Inhibition of protein denaturation (%)
T2 sequence (P01012 2-386): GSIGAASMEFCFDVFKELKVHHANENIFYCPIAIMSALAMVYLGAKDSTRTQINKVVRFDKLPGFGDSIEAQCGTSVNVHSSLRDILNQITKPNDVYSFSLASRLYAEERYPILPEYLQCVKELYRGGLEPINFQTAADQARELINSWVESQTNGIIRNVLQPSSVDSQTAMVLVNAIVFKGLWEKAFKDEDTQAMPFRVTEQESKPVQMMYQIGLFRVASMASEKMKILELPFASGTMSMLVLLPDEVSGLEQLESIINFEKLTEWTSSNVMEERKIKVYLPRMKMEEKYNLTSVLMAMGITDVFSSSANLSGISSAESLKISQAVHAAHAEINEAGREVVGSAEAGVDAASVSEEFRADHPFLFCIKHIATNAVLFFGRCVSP

COX-2 = biological target: T3, COX-2 (Homo sapiens, UniProt P35354); experiment: In vitro COX inhibitory assay; conditions: for Selectivity index: COX-1/COX-2 selectivity index; for inhibition at 50 µg/mL / inhibition at 100 µg/mL / inhibition at 150 µg/mL: read-out: Inhibition of COX-2 (%); for Inhibition of COX-2 in comparison to indomethacin: result in words
T3 sequence (P35354 18-604): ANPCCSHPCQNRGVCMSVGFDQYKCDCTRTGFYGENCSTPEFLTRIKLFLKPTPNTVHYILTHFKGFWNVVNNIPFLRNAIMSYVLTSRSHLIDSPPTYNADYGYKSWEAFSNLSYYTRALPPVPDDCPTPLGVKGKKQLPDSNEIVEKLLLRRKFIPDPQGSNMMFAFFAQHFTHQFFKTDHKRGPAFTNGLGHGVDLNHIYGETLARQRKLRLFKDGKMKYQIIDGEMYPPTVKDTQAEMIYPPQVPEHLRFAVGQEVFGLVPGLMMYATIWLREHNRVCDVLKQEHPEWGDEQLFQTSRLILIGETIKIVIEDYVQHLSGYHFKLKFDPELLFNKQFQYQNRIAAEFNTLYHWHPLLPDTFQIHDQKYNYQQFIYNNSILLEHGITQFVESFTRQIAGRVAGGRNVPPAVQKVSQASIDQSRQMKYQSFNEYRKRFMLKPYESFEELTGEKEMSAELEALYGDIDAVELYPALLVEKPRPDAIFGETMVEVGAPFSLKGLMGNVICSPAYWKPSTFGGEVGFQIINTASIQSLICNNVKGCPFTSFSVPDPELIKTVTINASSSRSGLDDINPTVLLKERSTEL

Row | IC50 (COX-1) [µM] | inhibition at 50 µg/mL (COX-1) [%] | inhibition at 100 µg/mL (COX-1) [%] | inhibition at 150 µg/mL (COX-1) [%] | inhibition at 50 µg/mL (egg albumin) [%] | inhibition at 100 µg/mL (egg albumin) [%] | inhibition at 200 µg/mL (egg albumin) [%] | inhibition at 300 µg/mL (egg albumin) [%] | IC50 (COX-2) [µM] | Selectivity index (COX-2) | inhibition at 50 µg/mL (COX-2) [%] | inhibition at 100 µg/mL (COX-2) [%] | inhibition at 150 µg/mL (COX-2) [%] | Inhibition of COX-1 in comparison to indomethacin (COX-1) | Inhibition of COX-2 in comparison to indomethacin (COX-2) | Structure (SMILES)
1 | 192 | 28.64 ± 0.04 | 53.24 ± 0.03 | 70.68 ± 0.04 | 55.8 | 60.5 | 66.3 | 74.2 | 92.9 | 2.06 | 59.1 ± 0.01 | 80.98 ± 0.02 | 98.4 ± 0.02 |  |  | CN(C)c1ccc(C2N=C(N)Nc3nc(C(=O)Nc4ccc(S(N)(=O)=O)cc4)nn32)cc1 (centres unmarked) [Compound 12, 5-Amino-7-(4-(dimethylamino)phenyl)-N-(4-sulfamoylphenyl)-4,7-dihydro-[1,2,4]-triazolo[1,5-a][1,3,5]triazine-2-carboxamide]
2 | 141 | 41.28 ± 0.04 | 63.43 ± 0.04 | 80.12 ± 0.03 | 83.4 | 88.2 | 93.9 | 98.2 | 96.7 | 1.46 | 60.3 ± 0.05 | 81.99 ± 0.01 | 98.97 ± 0.06 |  |  | NC1=NC(c2ccccc2O)n2nc(C(=O)Nc3ccc(S(N)(=O)=O)cc3)nc2N1 (centres unmarked) [Compound 11, 5-Amino-7-(2-hydroxyphenyl)-N-(4-sulfamoylphenyl)-4,7-dihydro-[1,2,4]-triazolo[1,5-a][1,3,5]triazine-2-carboxamide]
3 |  |  |  |  | 53.7 | 58.4 | 67.4 | 72.1 |  |  |  |  |  | less inhibition | less inhibition | NC1=NC(/C=C/c2ccccc2)n2nc(C(=O)Nc3ccc(S(N)(=O)=O)cc3)nc2N1 (centres unmarked) [Compound 6, (E)-5-Amino-7-styryl-N-(4-sulfamoylphenyl)-4,7-dihydro-[1,2,4]-triazolo[1,5-a][1,3,5]triazine-2-carboxamide]
4 |  |  |  |  | 55 | 59.8 | 65.7 | 73.6 |  |  |  |  |  | less inhibition | less inhibition | NC1=NC(c2cccc(O)c2)n2nc(C(=O)Nc3ccc(S(N)(=O)=O)cc3)nc2N1 (centres unmarked) [Compound 13, 5-Amino-7-(3-hydroxyphenyl)-N-(4-sulfamoylphenyl)-4,7-dihydro-[1,2,4]-triazolo[1,5-a][1,3,5]triazine-2-carboxamide]
5 | 186 | 30.12 ± 0.02 | 55.41 ± 0.05 | 71.23 ± 0.05 | 59.5 | 64.2 | 70 | 77.9 | 89.3 | 2.07 | 62.64 ± 0.01 | 64.78 ± 0.01 | 71.61 ± 0.01 |  |  | NC1=NC(c2ccccc2Cl)n2nc(C(=O)Nc3ccc(S(N)(=O)=O)cc3)nc2N1 (centres unmarked) [Compound 8, 5-Amino-7-(2-chlorophenyl)-N-(4-sulfamoylphenyl)-4,7-dihydro-[1,2,4]-triazolo[1,5-a][1,3,5]triazine-2-carboxamide]
6 |  |  |  |  | 54.7 | 59.5 | 65.3 | 73.2 |  |  |  |  |  | less inhibition | less inhibition | NC1=NC(C2N=C(N)Nc3nc(C(=O)Nc4ccc(S(N)(=O)=O)cc4)nn32)n2nc(C(=O)Nc3ccc(S(N)(=O)=O)cc3)nc2N1 (centres unmarked) [Compound 7, 5,5′-Diamino-N2,N2′-bis(4-sulfamoylphenyl)-4,4′,7,7′-tetrahydro-[7,7′-bi[1,2,4]triazolo[1,5-a][1,3,5]triazine]-2,2′-dicarboxamide]
7 | 180 | 32.51 ± 0.03 | 56.64 ± 0.01 | 74.32 ± 0.03 | 59.7 | 64.5 | 70.3 | 78.2 | 97.7 | 1.84 | 60.01 ± 0.05 | 67.25 ± 0.02 | 75.31 ± 0.01 |  |  | Cc1ccccc1C1N=C(N)Nc2nc(C(=O)Nc3ccc(S(N)(=O)=O)cc3)nn21 (centres unmarked) [Compound 5, 5-Amino-N-(4-sulfamoylphenyl)-7-(o-tolyl)-4,7-dihydro-[1,2,4]-triazolo[1,5-a][1,3,5]triazine-2-carboxamide]
8 | 99.5 | 62.43 ± 0.01 | 80.64 ± 0.01 | 90.02 ± 0.02 | 90.3 | 95 | 99.2 | 91.3 | 69 | 1.44 | 90.03 ± 0.02 | 95.11 ± 0.01 | 98.92 ± 0.02 |  |  | NC1=NC(c2ccco2)n2nc(C(=O)Nc3ccc(S(N)(=O)=O)cc3)nc2N1 (centres unmarked) [Compound 4, 5-Amino-7-(furan-2-yl)-N-(4-sulfamoylphenyl)-4,7-dihydro-[1,2,4]-triazolo[1,5-a][1,3,5]triazine-2-carboxamide]
9 |  |  |  |  | 55 | 59.7 | 65.5 | 73.4 |  |  |  |  |  | less inhibition | less inhibition | NC1=NC(c2cccc3ccccc23)n2nc(C(=O)Nc3ccc(S(N)(=O)=O)cc3)nc2N1 (centres unmarked) [Compound 10, 5-Amino-7-(naphthalen-1-yl)-N-(4-sulfamoylphenyl)-4,7-dihydro-[1,2,4]-triazolo[1,5-a][1,3,5]triazine-2-carboxamide]
10 |  |  |  |  | 51 | 55.8 | 61.6 | 69.5 |  |  |  |  |  | less inhibition | less inhibition | COc1ccc(C2N=C(N)Nc3nc(C(=O)Nc4ccc(S(N)(=O)=O)cc4)nn32)cc1 (centres unmarked) [Compound 9, 5-Amino-7-(4-methoxyphenyl)-N-(4-sulfamoylphenyl)-4,7-dihydro-[1,2,4]-triazolo[1,5-a][1,3,5]triazine-2-carboxamide]
